ChEMBL document CHEMBL1125631, “Adenosine deaminase inhibitors: synthesis and structure-activity relationships of imidazole analogues of erythro-9-(2-hydroxy-3-nonyl)adenine” (J Med Chem, 1991)

Legend:
Adenosine deaminase [1] = target: T1, Adenosine deaminase (Bos taurus, UniProt P56658); assay: Inhibition of calf intestinal adenosine deaminase
T1 sequence (P56658 whole entry): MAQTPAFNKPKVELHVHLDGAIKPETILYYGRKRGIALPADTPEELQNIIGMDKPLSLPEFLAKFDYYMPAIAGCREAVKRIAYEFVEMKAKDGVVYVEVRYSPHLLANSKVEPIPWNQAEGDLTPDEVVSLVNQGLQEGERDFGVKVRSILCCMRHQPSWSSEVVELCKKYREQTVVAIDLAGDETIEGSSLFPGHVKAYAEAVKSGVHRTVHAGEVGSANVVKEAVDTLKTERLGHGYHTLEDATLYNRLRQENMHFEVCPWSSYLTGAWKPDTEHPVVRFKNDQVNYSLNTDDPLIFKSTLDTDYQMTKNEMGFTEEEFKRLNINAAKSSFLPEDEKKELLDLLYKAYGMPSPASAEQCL

Adenosine deaminase [2] = target: T1, Adenosine deaminase; assay: Inhibition constant against calf intestinal adenosine deaminase; Not active

| Ki (Adenosine deaminase [1]) [µM] | Ki (Adenosine deaminase [2]) | SMILES |
| --- | --- | --- |
| 0.0353 |  | CCCCCCC(C(C)O)n1cnc(C(N)=O)c1 (stereo unspecified) |
| 1.04 |  | CCCCCCC(C(C)O)n1cnc(C(N)=O)c1N (stereo unspecified) |
| 16 |  | CCCCCCC(C(C)O)n1cnc(C(=O)NCCC)c1 (stereo unspecified) |
| 0.368 |  | CCCCCCC(C(C)O)n1cnc(C(=O)NC)c1 (stereo unspecified) |
| 17.9 |  | CCCCCCC(C(C)O)n1cnc(C(=O)NCC)c1 (stereo unspecified) |
| 32.1 |  | CCCCCCC(C(C)O)n1cnc(C(=O)NC[C@@H](C)O)c1 (stereo partly specified) |
| 2.52 |  | CCCCCCC(C(C)O)n1cnc(CO)c1 (stereo unspecified) |
| 6.9 |  | CCCCCCC(C(C)O)n1cnc(C(=O)NC[C@H](C)O)c1 (stereo partly specified) |
| 10.6 |  | CCCCCCC(C(C)O)n1cnc(C(=N)N)c1N (stereo unspecified) |
| 86 |  | CCCCCCC(C(C)O)n1cnc(C(=O)NCc2ccccc2)c1 (stereo unspecified) |
| 347 |  | CCCCCCC(C(C)O)n1cnc(C(=O)OCC)c1N (stereo unspecified) |
| 36.3 |  | CCCCCCC(C(C)O)n1cnc(C(=O)N(C)C)c1 (stereo unspecified) |
| 41.1 |  | CCCCCCC(C(C)O)n1cnc(C(=O)NC2CCCC2)c1 (stereo unspecified) |
| 2.56 |  | CCCCCCC(C(C)O)n1cnc(C(=N)N)c1 (stereo unspecified) |
| 39 |  | CCCCCCC(C(C)O)n1cnc(C(=O)O)c1 (stereo unspecified) |
| 4.02 |  | CCCCCCC(C(C)O)n1cnc(CN)c1 (stereo unspecified) |
| 66 |  | CCCCCCC(C(C)O)n1cnc(C(=O)OCC)c1 (stereo unspecified) |
|  | Not Active | N=C(N)c1cn(C2O[C@H](CO)[C@@H](O)[C@H]2O)cn1 (stereo partly specified) |
| 110 |  | Nc1cccc2c1ncn2C1O[C@H](CO)[C@@H](O)[C@H]1O (stereo partly specified) |
|  | Not Active | N=C(N)c1ncn(C2O[C@H](CO)[C@@H](O)[C@H]2O)c1N (stereo partly specified) |
|  | Not Active | Nc1ccnc2c1ccn2C1O[C@H](CO)[C@@H](O)[C@H]1O (stereo partly specified) |

| SMILES | Ki (Adenosine deaminase [1]) [µM] | Ki (Adenosine deaminase [2]) |
| --- | --- | --- |
| CCCCCCC(C(C)O)n1cnc(C(N)=O)c1Cl (stereo unspecified) | 0.126 |  |
| CCCCCCC(C(C)O)n1cnc(C(=O)NCCO)c1 (stereo unspecified) | 0.93 |  |
| CCCCCCC(C(C)O)n1cnc(C(=N)S)c1 (stereo unspecified) | 0.0471 |  |
| NC(=O)c1ccn(C2O[C@H](CO)[C@@H](O)[C@H]2O)c1 (stereo partly specified) |  | Not Active |
| Nc1ncnc2c1ccn2[C@@H]1O[C@H](CO)[C@@H](O)[C@H]1O [TUBERCIDIN] |  | Not Active |
